Test results taken from patent publication US11702666B2, “Cell-based assay for determining activity in the retinoblastoma pathway” (Medical Diagnostic Laboratories, LLC, priority 2017, dated 2023).
Positions count from the first letter of the chain named. Names and notes keep the numbering of the source. “Also recorded” adds a separate entry of the source. Each block holds one molecule with its values, some of them ahead of it.

Assays:
[1] = tested on: Rb/E2F1-Dp-1 complex; test: CDK6 mutant activity / drug resistance in NanoBiT assay, stable cell line #11; type: cell-based, human; details: for Luc activity (/wt): CDK6 mutants, compared to the WT (being 100%); for Luc. activity (/wt): relative to WT
Description: A linear expression cassette of mutated CDK4 or CDK6 was generated by PCR mediated overlapping extension method. A pair of forward and reverse primers containing the targeted mutations was designed. The mutated codon was located in the middle of a primer flanked by 18-21 nucleotides on each side. Two PCRs (named as PCR #1 and PCR #2 in FIG. 1) were performed using UF-CMV forward and mutated reverse primers, or mutated forward and BGH-UR primers. The PCR products were cleaned up by ExoSAP-IT® (Affymetrix) to remove unconsumed dNTPs and primers. The treated PCR products were mixed together followed by dilution with water. A second round of PCR was performed using the diluted PCR mixture, and the UF and UR primers (FIG. 1). The amplified products were gel-purified. The DNA concentration was quantitated by the optical density at 260 nm using Nanodrop. The targeted mutations were incorporated in the CDK4 or CDK6 genes during the PCR mediated overlapping extension method. The introduced mutations were confirmed by the DNA sequencing.
To examine the ability of the assay to detect variants in CDK4 or CDK6 that affect function, kinase dead mutants and COSMIC (Catalogue Of Somatic Mutations in cancer) unknown mutants were created. For comparison, hyperactive CDK4 or CDK6 mutants known to be hyperactive due to less binding to natural inhibitor p16 were also created. The mutations in CDK4 or CDK6 were created by site-directed mutagenesis. WT or mutated CDK4 or CDK6 along with the CyclinD1 and SB-Rb were co-transfected, under similar conditions as previously indicated (see FIG. 9).
Computer modeling was used to reveal the drug-binding pocket and predict drug-resistant mutants. The mutations in CDK4 and CDK6 were created by site-directed mutagenesis. WT or mutated CDK4 or CDK6 along with the CyclinD1 and SB-Rb was co-transfected into #11 cell line, under the same conditions as previously indicated. […] Dose response curves are presented on FIG. 13A and FIG. 13B. Activity of other mutants was very similar to the WT or KD.
CDK4 and CDK6 mutants with known function and unknown function taken from the COSMIC database were analyzed in the present assay and are summarized in Table 7A and Table 7B. The mutants were classified according to their activity. Table 7A and Table 7B also show the number of counts per mutant in the COSMIC database, type of cancer, and luciferase activity compared to the WT (being 100%).

[2] = tested on: E2F1/Dp-1 heterodimer; test: Rb activity assay (LB-Rb with E2F1-SB, DP1 split luciferase); type: cell-based, human; parameters: key to Observed activity: N—no activity; A—active as WT; R—reduced activity compared to the WT; details: Rb mutants
In short: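 HEK293 CDK DKO clone stably expressing E2F1-SB and Dp-1, transiently transfected with LB-Rb (70 ng DNA, 0.2×10^6 cells/ml). NanoBiT split-luciferase complementation from Rb–E2F1 binding read as luminescence (RLU) after NanoGlo substrate; triplicates, mean±SD.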

[3] = target: T1, CDK4 (Homo sapiens, UniProt P11802); test: p16 activity assay with CDK4 (NanoBiT, cell line #11); type: cell-based; details: for signal of p16 mutant (in words): loss of function mutants; for Observed function: p16 (CDKN2A) mutants, with CDK4
T1 construct: expressed in transfected cells; host or cells: HEK293 CDK4/CDK6 double-knockout cells stably expressing E2F1-Dp-1-LB (clone #11); early experiments in plain HEK293
Excerpt: We developed an assay that could measure the interaction between Rb, E2F1 and Dp-1. When the Rb and E2F1 proteins are in close proximity or in complex, a light signal is observed. For the purpose of the assay, split-luciferase complementation was used to measure the interaction between Rb and E2F1, which served as a surrogate measure of CDK4/6 activity and the ability of CDK4/6 to respond to the natural inhibitor p16. The NanoBiT assay system by Promega (Madison, Wis.; Dixon et al., 2015, ACS ChemBiol) was used in the split luciferase complementation design. FIG. 24 depicts a design of a signal system to measure p16 activity. Under basal conditions inside the cell, Rb is active and interacts with the E2F1/Dp-1 heterodimer. However, in the presence of the CDK4 or CDK6, Rb gets phosphorylated and released from the interacting complex. In the presence of the natural inhibitor p16, CDK4/6 is no longer available to phosphorylate Rb and thus promoting the Rb/E2F1-Dp-1 complex formation.
For the purpose of the current assay, the stable cell line #11 that we generated for the CDK activity assay was used and described above. HEK293 CDK DKO cells containing E2F1-Dp-1-LB was transiently transfected with CDK4/CDK6, CyclinD1, and SB-Rb. The transfected cells were then exposed to the natural inhibitor p16 (FIG. 25). When CDK4 or CDK6 is present, a decrease in activity was observed as Rb gets phosphorylated resulting in no Rb/E2F1-Dp-1 interaction. […] The data presented was a sample experiment where each condition was performed in triplicate and represented mean+SD.
The conditions of the assay were optimized by using different p16 amounts and cell numbers (FIGS. 25A and 25B). Based on the data generated, it was decided that using 0.2×10^6 cells/ml and 10 ng of p16 would be preferable.
To examine the ability of the assay to detect variants in CDKN2A that affect function, known loss of function mutants and unknown COSMIC mutants were created. Wild-type or mutated CDKN2A were prepared in a manner similar to that previously indicated. […] Therefore the p16 activity assay is capable of determining the relative activity level of p16 mutants. The data provided is in Luminescence (RLU) of a single experiment with each condition performed in triplicate and represent average+SD. Summary Table 13 reports p16 mutants tested.
In addition to check functional state of p16 mutants, p16 activity assay can be used to look at p16 inhibition response of different CDK4 and CDK6 mutants. Different response of WT CDK4 and CDK6 and hyperactive mutants of CDK4 (R24A) and CDK6 (R31C) is shown on FIG. 28. […] The p16 activity assay is so sensitive and specific that hyperactive CDK4 and CDK6 mutants can show different response to mutant p16.

[4] = predicted drug resistant CDK6 mutants

T1 sequence (P11802 2-303): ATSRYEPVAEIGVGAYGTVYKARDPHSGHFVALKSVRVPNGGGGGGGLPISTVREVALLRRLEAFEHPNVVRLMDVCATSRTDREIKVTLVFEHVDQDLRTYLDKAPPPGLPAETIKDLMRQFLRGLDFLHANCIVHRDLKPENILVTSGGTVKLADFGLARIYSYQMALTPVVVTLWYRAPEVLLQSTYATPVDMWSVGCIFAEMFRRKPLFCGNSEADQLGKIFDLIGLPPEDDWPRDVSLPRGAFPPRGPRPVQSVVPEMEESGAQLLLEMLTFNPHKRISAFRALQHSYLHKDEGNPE
Chain of E2F1/Dp-1 heterodimer (Q01094 58-437 limits assumed): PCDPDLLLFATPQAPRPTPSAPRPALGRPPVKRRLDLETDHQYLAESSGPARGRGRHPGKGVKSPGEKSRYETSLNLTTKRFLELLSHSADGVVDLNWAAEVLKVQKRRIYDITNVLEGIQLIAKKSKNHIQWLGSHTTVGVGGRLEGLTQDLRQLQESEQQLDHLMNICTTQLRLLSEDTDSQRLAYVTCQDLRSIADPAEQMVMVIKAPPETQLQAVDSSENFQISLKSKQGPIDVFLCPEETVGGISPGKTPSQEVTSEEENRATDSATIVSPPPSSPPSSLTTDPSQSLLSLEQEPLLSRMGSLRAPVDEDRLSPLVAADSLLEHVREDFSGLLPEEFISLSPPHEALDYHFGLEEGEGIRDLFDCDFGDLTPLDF
Chain of E2F1/Dp-1 heterodimer (Q14186 whole entry, further chain): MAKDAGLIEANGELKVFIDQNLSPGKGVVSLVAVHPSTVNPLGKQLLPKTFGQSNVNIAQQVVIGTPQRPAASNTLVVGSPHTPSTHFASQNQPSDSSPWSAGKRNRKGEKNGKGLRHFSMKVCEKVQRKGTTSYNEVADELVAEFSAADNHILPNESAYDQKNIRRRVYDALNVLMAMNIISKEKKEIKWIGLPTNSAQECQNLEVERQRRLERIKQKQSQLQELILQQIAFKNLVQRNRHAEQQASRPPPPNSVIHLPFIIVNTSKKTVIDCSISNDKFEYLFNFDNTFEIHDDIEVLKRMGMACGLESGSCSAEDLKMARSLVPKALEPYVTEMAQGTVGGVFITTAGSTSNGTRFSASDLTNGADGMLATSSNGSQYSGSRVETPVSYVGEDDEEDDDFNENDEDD

Molecule: CDK6 D163N: CDK6 mutant, literature kinase dead
Luc activity (/wt) [1]: 408%

Molecule: CDK6 F98I: predicted drug resistant CDK6 mutant
Luc. activity (/wt) [1, 4]: 176%

Molecule: CDK6 V27A: predicted drug resistant CDK6 mutant
Luc. activity (/wt) [1, 4]: 149%

Molecule: CDK6 R220S: CDK6 mutant from COSMIC database
Luc activity (/wt) [1]: 271%

Molecule: CDK6 H100Y: predicted drug resistant CDK6 mutant
Luc. activity (/wt) [1, 4]: 126%

Molecule: CDK6 K43M: CDK6 mutant, literature kinase dead
Luc activity (/wt) [1]: 468%

Molecule: CDK6 P199L: CDK6 mutant from COSMIC database
Luc activity (/wt) [1]: 565%

Molecule: CDK6 T107K: predicted drug resistant CDK6 mutant
Luc. activity (/wt) [1, 4]: 95%
Observed drug resist. ([1]; predicted drug resistant CDK6 mutants, Palbociclib/Ribociclib): showed drug resistance; also recorded: Resistant

Molecule: CDK6 R220C: CDK6 mutant from COSMIC database
Luc activity (/wt) [1]: 164%

Molecule: CDK6 I19L: predicted drug resistant CDK6 mutant
Luc. activity (/wt) [1, 4]: 129%

Molecule: CDK6 D104N: predicted drug resistant CDK6 mutant
Luc. activity (/wt) [1, 4]: 138%

Molecule: CDK6 R144H: CDK6 mutant from COSMIC database
Luc activity (/wt) [1]: 267%

Molecule: CDK6 L152V: predicted drug resistant CDK6 mutant
Luc. activity (/wt) [1, 4]: 114%

Molecule: CDK6 A41V: predicted drug resistant CDK6 mutant
Luc. activity (/wt) [1, 4]: 132%

Observed activity [2]: A
% (/wt) ([2]; activity relative to WT): 92%
B1: Rb R798Q: Rb mutant from COSMIC database (protein, UniProt P06400 2-928, looked up, variant R798Q)
Retinoblastoma-associated …: PPKTPRKTAATAAAAAAEPPAPPPPPPPEEDPEQDSGPEDLPLVRLEFEETEEPDFTALCQKLKIPDHVRERAWLTWEKVSSVDGVLGGYIQKKKELWGICIFIAAVDLDEMSFTFTELQKNIEISVHKFFNLLKEIDTSTKVDNAMSRLLKKYDVLFALFSKLERTCELIYLTQPSSSISTEINSALVLKVSWITFLLAKGEVLQMEDDLVISFQLMLCVLDYFIKLSPPMLLKEPYKTAVIPINGSPRTPRRGQNRSARIAKQLENDTRIIEVLCKEHECNIDEVKNVYFKNFIPFMNSLGLVTSNGLPEVENLSKRYEEIYLKNKDLDARLFLDHDKTLQTDSIDSFETQRTPRKSNLDEEVNVIPPHTPVRTVMNTIQQLMMILNSASDQPSENLISYFNNCTVNPKESILKRVKDIGYIFKEKFAKAVGQGCVEIGSQRYKLGVRLYYRVMESMLKSEEERLSIQNFSKLLNDNIFHMSLLACALEVVMATYSRSTSQNLDSGTDLSFPWILNVLNLKAFDFYKVIESFIKAEGNLTREMIKHLERCEHRIMESLAWLSDSPLFDLIKQSKDREGPTDHLESACPLNLPLQNNHTAADMYLSPVRSPKKKGSTTRVNSTANAETQATSAFQTQKPLKSTSLSLFYKKVYRLAYLRLNTLCERLLSEHPELEHIIWTLFQHTLQNEYELMRDRHLDQIMMCSMYGICKVKNIDLKFKIIVTAYKDLPHAVQETFKRVLIKEEEYDSIIVFYNSVFMQRLKTNILQYASTRPPTLSPIPHIPRSPYKFPSSPLQIPGGNIYISPLKSPYKISEGLPTPTKMTPRSRILVSIGESFGTSEKFQKINQMVCNSDRVLKRSAEGSNPPKPLKKLRFDIEGSDEADGSKHLPGESKFQQKLAEMTSTRTRMQKQKMNDSMDTSNKEEK

signal of p16 mutant (in words) [3]: close to the baseline
B2: p16 A20P: p16 (CDKN2A) mutant (protein)
chain: MEPAAGSSMEPSADWLATAPARGRVEEVRALLEAGALPNAPNSYGRRPIQVMMMGSARVAELLLLHGAEPNCADPATLTRPVHDAAREGFLDTLVVLHRAGARLDVRDAWGRLPVDLAEELGHRDVARYLRAAAGGTRGSNHARIDAAEGPSDIPD

signal of p16 mutant (in words) [3]: close to the baseline
B3: p16 V126D: p16 (CDKN2A) mutant (protein)
chain: B2 chain with P20A, V126D

Observed function [3]: Normal
B4: p16 D14G: p16 (CDKN2A) mutant (protein)
chain: B2 chain with D14G, P20A

Observed function [3]: Normal
B5: p16 A36G: p16 (CDKN2A) mutant (protein)
chain: B2 chain with P20A, A36G

Observed function [3]: Normal
B6: p16 D108N: p16 (CDKN2A) mutant (protein)
chain: B2 chain with P20A, D108N

Observed function [3]: Reduced
B7: p16 G101W: p16 (CDKN2A) mutant (protein)
chain: B2 chain with P20A, G101W

signal of p16 mutant (in words) [3]: close to the baseline
B8: p16 H83Y: p16 (CDKN2A) mutant (protein)
chain: B2 chain with P20A, H83Y

signal of p16 mutant (in words) [3]: close to the baseline
B9: p16 P114L: p16 (CDKN2A) mutant (protein)
chain: B2 chain with P20A, P114L

Observed function [3]: Normal
B10: p16 S56N: p16 (CDKN2A) mutant (protein)
chain: B2 chain with P20A, S56N
